# Experimental data taken from patent US20230210096A1, “NON-HUMAN ANIMAL MODELS FOR AGING AND/OR NEURODEGENERATION” (University of Pittsburgh - Of the Commonwealth System of …, priority 2020, published 2023).
# B1: DNAse1: DNAse1 protein transfected to degrade cytosolic DNA (protein, UniProt P24855 23-282, looked up)
# Deoxyribonuclease-1: LKIAAFNIQTFGETKMSNATLVSYIVQILSRYDIALVQEVRDSHLTAVGKLLDNLNQDAPDTYHYVVSEPLGRNSYKERYLFVYRPDQVSAVDSYYYDDGCEPCGNDTFNREPAIVRFFSRFTEVREFAIVPLHAAPGDAVAEIDALYDVYLDVQEKWGLEDVMLMGDFNAGCSYVRPSQWSSIRLWTSPTFQWLIPDSADTTATPTHCAYDRIVVAGMLLRGAVVPDSALPFNFQAAYGLSDQLAQAISDHYPVEVMLK
# Tests used:
# [1] = test system: AANAT-KO primary cerebrocortical neurons (PCNs); test: Immunoblot of cGAS, STING, IRF3, caspase-1 in PCNs; format: cell-based, mouse; details: AANAT-KO PCN, DIV21, melatonin 5 µM
# Protocol: (§1) N2a cells were obtained from ATCC and grown in DMEM/F12 medium with 10% FBS. AANAT-KO N2a cells were generated as described elsewhere (see, e.g., Suofu et al., PNAS 114:E7997-E8006 (2017)). N2a cells were differentiated by exposing them to 10 µM retinoic acid (RA) with 2% fetal bovine serum (FBS) for 8 days. Every alternate day, the culture medium of differentiating N2a cells was replaced with fresh medium containing 10 µM of RA. N2a cells were treated with 5 µM melatonin during differentiation to evaluate the effect of melatonin in WT and AANAT-KO N2a differentiated neurons. Fresh melatonin was added with RA every alternate day for 8 days. All experiments were performed in 8-day-differentiated neurons with or without melatonin. […]
# (§2) Samples (isolated mitochondria or whole-cell lysates) were cleared by centrifugation at 20,000 x g, equal amounts of protein were separated on Novex 4-12% gradient polyacrylamide gels (Invitrogen), and proteins transferred overnight onto 0.45 µm polyvinylidene difluoride (PVDF) membranes. The membranes were then incubated with the indicated primary antibodies overnight at 4° C. followed by incubation with secondary antibodies (Li-Cor) for 1 hour at room temperature, which were detected using the Odyssey CLx Infrared Imaging System (Li-Cor). Band intensities were quantified using Image Studio (Li-Cor).
# [2] = test system: AANAT-KO primary cerebrocortical neurons (PCNs); test: MMP (TMRM) and mitochondrial ROS (Mitosox) in PCNs; format: cell-based, mouse; details: AANAT-KO PCN, DIV21, melatonin 5 µM in culture medium
# Protocol: as §1, with “melatonin. STHdh^Q7/Q7 (Q7) STHdh^Q111/Q111 (Q111) cells were grown in MEM culture medium with 10% FBS.” for “melatonin.”
# (§3) ROS accumulation in cells was estimated by either DCFDA for total ROS or Mitosox for mitochondrial ROS. Cells were incubated in 20 µM DCFDA for 45 minutes or 5 µM Mitosox for 15 minutes at 37° C. and fluorescence was measured using plate reader or flowcytometry. […] Cells were incubated in 2 µg/mL JC-1 or 25 nM TMRM for 30 minutes at 37° C. and fluorescence were measured using plate reader or flowcytrometry. […]
# [3] = test system: R6/2 mice; test: Melatonin injection in R6/2 mouse model of HD: cytosolic mtDNA, cGAS/STING/IRF3, cytokines; format: in vivo; details: melatonin 30 mg/kg injected daily from 6 to 9 weeks of age
# Protocol: Since melatonin is protective in R6/2 mice and melatonin is deficient in humans with HD, it was evaluated whether exogenous melatonin reduces mtDNA release and consequent inflammation. Six-week old R6/2 mice were injected with melatonin daily for 3 weeks. Melatonin inhibited mtDNA release and ameliorated cGAS/STING/IRF3 upregulation in cortex and striatum in 9-week R6/2 mice (FIGS. 12D and E, and FIG. 13A).
# R6/2 mice, which carry the promoter sequence and exon 1 of a mutant human HTT gene with approximately 150 CAG repeats, were obtained from JAX (Bar Harbor, ME). A colony was maintained by breeding R6/2 males with B6CBAF1 females (JAX). CAG repeat length was determined for every mouse in the colony and mice with 150 +/-10 CAG repeats were used. PCR genotyping was performed. Three, six and Nine week-old R6/2 mice were used in the experiments.
# as §2
# (§4) Total RNA was isolated using the RNeasy Plus kit (Qiagen) and quantified using a ND-1000 spectrophotometer. cDNA was prepared using 1000 ng total RNA by a reverse transcription PCR (RT-PCR) using a high capacity cDNA reverse transcription kit (Applied Biosystems). qPCR was performed on cDNA using SYBR Green chemistry. qPCR was performed on a Biorad CFX touch PCR using Applied Biosystems PowerUp SYBR green master mix. Fold changes in expression were calculated by the ΔΔCt method using mouse β-Actin as an endogenous control for mRNA expression. All fold changes were expressed normalized to the untreated control. […]
# [4] = test system: AANAT-KO differentiated N2a cells; test: Immunoblot of inflammatory, caspase and synaptic markers in differentiated N2a cells; format: cell-based, mouse; details: melatonin 5 µM
# Protocol: (§5) N2a cells were obtained from ATCC and grown in DMEM/F12 medium with 10% FBS. AANAT-KO N2a cells were generated as described elsewhere (see, e.g., Suofu et al., PNAS 114:E7997-E8006 (2017)). N2a cells were differentiated by exposing them to 10 µM retinoic acid (RA) with 2% fetal bovine serum (FBS) for 8 days. Every alternate day, the culture medium of differentiating N2a cells was replaced with fresh medium containing 10 µM of RA. N2a cells were treated with 5 µM melatonin during differentiation to evaluate the effect of melatonin in WT and AANAT-KO N2a differentiated neurons. Fresh melatonin was added with RA every alternate day for 8 days. All experiments were performed in 8-day-differentiated neurons with or without melatonin. STHdh^Q7/Q7 (Q7) STHdh^Q111/Q111 (Q111) cells were grown in MEM culture medium with 10% FBS. Differentiation of Q7 and Q111 cells was induced by exposing cells to 10 ng/mL α-FGF, 250 µM 3-isobutyl-1-methylxanthine (IBMX), 200 nM phorbol 12-myristate 13-acetate (TPA), 50 µM forskolin and 10 µM dopamine for 2 days. AANAT-KO and littermate WT primary cerebro-cortical neuron (PCN) cultures were prepared from embryonic day (E) 15.5 embryos, as described elsewhere (see, e.g., Yano et al., Nature neuroscience 17:822 (2014)).
# as §2
# [5] = test system: AANAT-KO differentiated N2a cells; test: Neurite length and number by βIII-tubulin staining; format: cell-based, mouse; details: melatonin 5 µM
# Protocol: as §5, with “(2014)). […]” for “(2014)).”
# [6] = test system: AANAT-KO primary cerebrocortical neurons (PCNs); test: qPCR of cytosolic mtDNA in PCNs; format: cell-based, mouse; details: AANAT-KO PCN, DIV21, melatonin 5 µM
# Protocol: as §5, with “AANAT-KO and littermate WT primary cerebro-cortical neuron (PCN) cultures were prepared from embryonic day (E) 15.5 embryos, as described elsewhere (see, e.g., Yano et al., Nature neuroscience 17:822 (2014)).” left out
# (§6) For measurement of mtDNA in cytosol in cells, cell fractions were prepared using Cell Fractionation Kit (Abeam). […] The copy number of mtDNA encoding cytochrome c oxidase 1 (mt-CO1), mt-Dloop1 and mt-Dloop3 was measured by quantitative real-time PCR with same volume of DNA solution. […]
# [7] = test system: AANAT-KO differentiated N2a cells; test: ROS (Mitosox) and MMP (JC-1/TMRM) in differentiated N2a cells; format: cell-based, mouse; details: melatonin 5 µM
# Protocol: as §1, with “melatonin. STHdh^Q7/Q7 (Q7) STHdh^Q111/Q111 (Q111) cells were grown in MEM culture medium with 10% FBS.” for “melatonin.”
# as §3
# [8] = test system: mitochondria of AANAT-KO differentiated N2a cells; test: Mitochondrial in vitro protein import assay (pOTC/mOTC); format: cell-based, mouse; details: melatonin
# Protocol: as §1, with “melatonin. STHdh^Q7/Q7 (Q7) STHdh^Q111/Q111 (Q111) cells were grown in MEM culture medium with 10% FBS.” for “melatonin.”
# Ornithine transcarbamylase (OTC) precursor cDNA in pGEM-3Zf(+)-pOTC plasmid was transcribed and translated in vitro using the TNT Coupled Reticulocyte Lysate System (Promega) in the presence of [^35S] methionine (PerkinElmer). […] Mature OTC, which represents the cleaved protein after translocation into the mitochondrial matrix, was quantified by ImageJ (NIH). […]
# [9] = test system: AANAT-KO differentiated N2a cells; test: Cytokine ELISA in culture medium of differentiated N2a cells; format: cell-based, mouse; details: melatonin 5 µM
# Protocol: as §5
# [10] = test system: AANAT-KO differentiated N2a cells; test: 8-OHDG immunofluorescence (mtDNA oxidative damage) in differentiated N2a cells; format: cell-based, mouse; details: melatonin 5 µM
# Protocol: as §5, with “(2014)). […]” for “(2014)).”
# [11] = test system: AANAT-KO primary cerebrocortical neurons (PCNs); test: Cytokine ELISA in culture medium of PCNs; format: cell-based, mouse; details: AANAT-KO PCN, DIV21, melatonin 5 µM
# Protocol: as §5
# [12] = test system: AANAT-KO differentiated N2a cells; test: qPCR of cytosolic mtDNA in differentiated N2a cells; format: cell-based, mouse; details: melatonin 5 µM
# Protocol: as §5, with “AANAT-KO and littermate WT primary cerebro-cortical neuron (PCN) cultures were prepared from embryonic day (E) 15.5 embryos, as described elsewhere (see, e.g., Yano et al., Nature neuroscience 17:822 (2014)).” left out
# as §6
# [13] = test system: Q7 and Q111 differentiated neurons; test: Cytokine ELISA and mRNA qPCR in differentiated Q7 and Q111 neurons; format: cell-based, mice; details: Q111 differentiated neurons transfected with DNase 1, LDH control
# Protocol: as §1, with “melatonin. STHdh^Q7/Q7 (Q7) STHdh^Q111/Q111 (Q111) cells were grown in MEM culture medium with 10% FBS.” for “melatonin.”
# as §4, with “expression.” for “expression. All fold changes were expressed normalized to the untreated control.”
# [14] = test system: Q7 and Q111 differentiated neurons; test: Immunoblot of cGAS, IRF3, STING in differentiated Q7 and Q111 neurons; format: cell-based, mice; details: differentiated Q111 neurons transfected with DNase 1, LDH control
# Protocol: as §1
# as §2, with “Studio (Li-Cor). […]” for “Studio (Li-Cor).”
# [15] = test system: Q111 cells; test: ROS (Mitosox) and MMP (TMRM) in differentiated Q7 and Q111 neurons; format: cell-based, mice; details: Q111 cells transfected with DNase 1, 2 µg/mL, LDH control
# Protocol: as §1, with “melatonin. STHdh^Q7/Q7 (Q7) STHdh^Q111/Q111 (Q111) cells were grown in MEM culture medium with 10% FBS.” for “melatonin.”
# as §3
molecule,measurement,setting,value
"COc1ccc2[nH]cc(CCNC(C)=O)c2c1 [melatonin, Melatonin]",cGAS/STING/IRF3 protein levels,[1],inhibited
same,caspase-1,[1],inhibited
same,MMP (TMRM fluorescence),[2],restored
same,mitochondrial ROS (Mitosox),[2],restored
same,expression of pro-inflammatory cytokines in brain,[3],reduced
same,cGAS/STING/IRF3 upregulation,[3]; cortex and striatum,ameliorated
same,mtDNA release (cytosolic mtDNA),[3]; cortex and striatum,inhibited
same,caspase-3 activation,[4],inhibited
same,expression of PSD95 (post-synaptic marker),[4],increased
same,expression of synaptophysin (pre-synaptic marker),[4],increased
same,"inflammatory signaling pathways (Nf-kβ phosphorylation, caspase-1 cleavage, cGAS/STING/IRF3 levels)",[4],inhibited
same,average neurite length,[5],rescued
same,average neurite number,[5],rescued
same,"cytosolic mtDNA (mt-CO1, mt-Dloop1, mt-Dloop3)",[6],inhibited
same,MMP (JC-1 fluorescence),[7],mitigated
same,ROS (Mitosox fluorescence),[7],mitigated
same,mitochondrial protein import,[8],mitigated
same,pro-inflammatory cytokines secretion,[9],inhibited
same,mtDNA damage (8-OHDG),[10],mitigated
same,proinflammatory cytokines secretion,[11],inhibited
same,mtDNA release (cytosolic mtDNA),[12],prevented
B1,proinflammatory cytokine secretion,[13],inhibited
same,cGAS/STING/IRF3 levels,[14],inhibited
same,elevated ROS (Mitosox),[15],did not alter
same,reduced MMP (TMRM),[15],did not alter
